Test results as given in US4528380A, “5-(1-Propyl)n-butyl tetrazoles” (Delalande S.A., priority 1981, dated 1985).

Tests used:
[1] = test system: mortality induced by bicucullin; assay: Protection against mortality induced by intravenous bicucullin (anti-convulsive activity); type: in vivo; conditions: Mus musculus, ip; mice, compound i.p.; intravenous injection of 0.7 mg/kg of bicucullin; read-out: ED 50 against mortality induced by bicucullin
[2] = Acute toxicity, intraperitoneal, method of Miller and Tainter; conditions: mouse, in vivo, ip, mice, read-out: Acute toxicity LD 50
Description: Acute toxicity is assessed intraperitoneally on mice according to the method of Miller and Tainter described in Proc. Soc. Exp. Biol. Med. 57, 261, (1944).

| SMILES | ED50 [1] [mg/kg] | LD50 [2] [mg/kg] |
| --- | --- | --- |
| CCC(C)(C)c1nn[nH]n1 [compound 1] | 100 | > 400 |
| CCCCC(C)(CC)c1nn[nH]n1 (centres unmarked) [compound 3] | 120 | 320 |
| CCCC(CCC)(CCC)c1nn[nH]n1 [compound 5] | 44 | 280 |
| CCCC(CCC)c1nn[nH]n1 [compound 6, [1-(1-n propyl)nbutyl] tetrazole] | 135 | > 400 |
